Source: the CheMixHub viscosity set

Test: xn = mol fraction of the nth substance listed

OCC(O)CO + O
Conditions	viscosity [mPa·s]
293.15 K, 101.33 kPa, x1 = 0.021	1.307
293.15 K, 101.33 kPa, x1 = 0.047	1.952
293.15 K, 101.33 kPa, x1 = 0.077	2.817
293.15 K, 101.33 kPa, x1 = 0.12	4.618
293.15 K, 101.33 kPa, x1 = 0.16	7.693
298.15 K, 101 kPa, x1 = 0.0866	2.708
298.15 K, 101 kPa, x1 = 0.1636	7.353
298.15 K, 101 kPa, x1 = 0.2269	13.77
298.15 K, 101 kPa, x1 = 0.3134	27.75
298.15 K, 101 kPa, x1 = 0.439	59.74
298.15 K, 101 kPa, x1 = 0.5124	88.48
298.15 K, 101 kPa, x1 = 0.6378	163.1
298.15 K, 101 kPa, x1 = 0.7036	220.8
298.15 K, 101 kPa, x1 = 0.7684	297.3
298.15 K, 101 kPa, x1 = 0.8478	429.9
298.15 K, 101 kPa, x1 = 0.9176	604.8
298.15 K, 101 kPa, x1 = 0.9561	734.9
300.65 K, 101 kPa, x1 = 0.2636	10.84
300.65 K, 101 kPa, x1 = 0.2837	12.68
300.65 K, 101 kPa, x1 = 0.3153	16.23
300.65 K, 101 kPa, x1 = 0.3391	19.56
300.65 K, 101 kPa, x1 = 0.365	23.64
300.65 K, 101 kPa, x1 = 0.3785	26.06
300.65 K, 101 kPa, x1 = 0.4055	31.58
300.65 K, 101 kPa, x1 = 0.4294	37.49
300.65 K, 101 kPa, x1 = 0.485	54.01
300.65 K, 101 kPa, x1 = 0.5117	64.08
300.65 K, 101 kPa, x1 = 0.5472	79.81
300.65 K, 101 kPa, x1 = 0.5575	85.2
300.65 K, 101 kPa, x1 = 0.5867	102.7
300.65 K, 101 kPa, x1 = 0.6349	135.1
300.65 K, 101 kPa, x1 = 0.659	154.4
300.65 K, 101 kPa, x1 = 0.6978	191.6
300.65 K, 101 kPa, x1 = 0.7166	212.1
300.65 K, 101 kPa, x1 = 0.7442	245.6
300.65 K, 101 kPa, x1 = 0.7646	266.3
300.65 K, 101 kPa, x1 = 0.7947	309.7
300.65 K, 101 kPa, x1 = 0.8114	336.6
300.65 K, 101 kPa, x1 = 0.8274	363.6
300.65 K, 101 kPa, x1 = 0.8428	389.9
300.65 K, 101 kPa, x1 = 0.859	420.7
300.65 K, 101 kPa, x1 = 0.9082	519.8
300.65 K, 101 kPa, x1 = 0.9434	607.3
300.65 K, 101 kPa, x2 = 0.0171	715.5
303.15 K, 101 kPa, x1 = 0.00777	0.877
303.15 K, 101 kPa, x1 = 0.0152	0.956
303.15 K, 101 kPa, x1 = 0.02262	1.04
303.15 K, 101 kPa, x1 = 0.03118	1.147
303.15 K, 101 kPa, x1 = 0.03958	1.259
303.15 K, 101 kPa, x1 = 0.04604	1.351
303.15 K, 101 kPa, x1 = 0.05683	1.52
303.15 K, 101 kPa, x1 = 0.07063	1.751
303.15 K, 101 kPa, x1 = 0.07885	1.907
303.15 K, 101 kPa, x1 = 0.08828	2.098
303.15 K, 101 kPa, x1 = 0.1003	2.364
303.15 K, 101 kPa, x1 = 0.1112	2.625
303.15 K, 101 kPa, x1 = 0.1223	2.919
303.15 K, 101 kPa, x1 = 0.1369	3.347
303.15 K, 101 kPa, x1 = 0.154	3.909
303.15 K, 101 kPa, x1 = 0.171	4.552
303.15 K, 101 kPa, x1 = 0.1874	5.236
303.15 K, 101 kPa, x1 = 0.1967	5.679
303.15 K, 101 kPa, x1 = 0.2067	6.187
303.15 K, 101 kPa, x1 = 0.2178	6.77
303.15 K, 101 kPa, x1 = 0.225	7.222
303.15 K, 101 kPa, x1 = 0.2378	7.986
303.15 K, 101 kPa, x1 = 0.2459	8.548
303.15 K, 101 kPa, x1 = 0.2622	9.75
303.15 K, 101 kPa, x1 = 0.2636	9.8
303.15 K, 101 kPa, x1 = 0.2837	11.4
303.15 K, 101 kPa, x1 = 0.3153	14.53
303.15 K, 101 kPa, x1 = 0.3391	17.41
303.15 K, 101 kPa, x1 = 0.365	20.97
303.15 K, 101 kPa, x1 = 0.3785	23.02
303.15 K, 101 kPa, x1 = 0.4055	27.81
303.15 K, 101 kPa, x1 = 0.4294	32.86
303.15 K, 101 kPa, x1 = 0.485	46.9
303.15 K, 101 kPa, x1 = 0.5117	55.29
303.15 K, 101 kPa, x1 = 0.5472	68.64
303.15 K, 101 kPa, x1 = 0.5575	73.12
303.15 K, 101 kPa, x1 = 0.5867	87.65
303.15 K, 101 kPa, x1 = 0.6349	114.5
303.15 K, 101 kPa, x1 = 0.659	130.4
303.15 K, 101 kPa, x1 = 0.6978	161
303.15 K, 101 kPa, x1 = 0.7166	177.9
303.15 K, 101.33 kPa, x1 = 0.021	1.057
303.15 K, 101.33 kPa, x1 = 0.047	1.46
303.15 K, 101.33 kPa, x1 = 0.077	2.006
303.15 K, 101.33 kPa, x1 = 0.12	3.309
303.15 K, 101.33 kPa, x1 = 0.16	5.252
313.15 K, 101.33 kPa, x1 = 0.021	0.843
313.15 K, 101.33 kPa, x1 = 0.047	1.086
313.15 K, 101.33 kPa, x1 = 0.077	1.465
313.15 K, 101.33 kPa, x1 = 0.12	2.226
313.15 K, 101.33 kPa, x1 = 0.16	3.499
323.15 K, 101.33 kPa, x1 = 0.021	0.68
323.15 K, 101.33 kPa, x1 = 0.047	0.876
323.15 K, 101.33 kPa, x1 = 0.077	1.095
323.15 K, 101.33 kPa, x1 = 0.12	1.666
323.15 K, 101.33 kPa, x1 = 0.16	2.587

CCOc1ccccc1 + CCNc1ccccc1
viscosity [mPa·s], 101 kPa
Conditions	293.15 K	298.15 K	303.15 K	308.15 K	313.15 K	318.15 K	323.15 K
x2 = 0.0508	1.253	1.161	1.063	0.999	0.933	0.868	0.808
x2 = 0.1098	1.291	1.19	1.088	1.021	0.953	0.884	0.823
x2 = 0.1509	1.317	1.211	1.105	1.036	0.965	0.896	0.832
x2 = 0.2097	1.355	1.241	1.131	1.057	0.983	0.91	0.845
x2 = 0.2533	1.386	1.265	1.151	1.072	0.996	0.921	0.855
x2 = 0.3046	1.423	1.295	1.176	1.093	1.012	0.935	0.866
x2 = 0.3501	1.459	1.323	1.2	1.112	1.028	0.948	0.878
x2 = 0.4081	1.51	1.364	1.234	1.141	1.052	0.967	0.894
x2 = 0.4533	1.552	1.397	1.262	1.164	1.071	0.984	0.908
x2 = 0.5003	1.599	1.435	1.295	1.191	1.094	1.003	0.924
x2 = 0.5519	1.655	1.479	1.333	1.223	1.122	1.027	0.944
x2 = 0.6068	1.719	1.531	1.377	1.26	1.153	1.054	0.967
x2 = 0.6496	1.772	1.574	1.414	1.291	1.18	1.077	0.986
x2 = 0.7065	1.846	1.633	1.464	1.333	1.215	1.107	1.012
x2 = 0.7497	1.906	1.682	1.506	1.367	1.244	1.131	1.033
x2 = 0.7998	1.978	1.739	1.554	1.407	1.278	1.16	1.058
x2 = 0.8505	2.055	1.798	1.604	1.447	1.311	1.188	1.082
x2 = 0.9019	2.133	1.859	1.653	1.487	1.344	1.214	1.105
x2 = 0.9502	2.205	1.914	1.699	1.525	1.374	1.239	1.125

CC(=O)[C@@]12O[C@@H]1C[C@H]1[C@@H]3CCC4=CC(=O)CC[C@]4(C)[C@H]3[C@H](O)C[C@@]12C + ClC(Cl)Cl
viscosity [mPa·s]
Conditions	295.7 K	299.65 K	303.75 K	307.65 K	312.15 K	317.15 K	321.15 K
100 kPa, x1 = 0.00321	0.57	0.536	0.52	0.498	0.491	0.48	0.454
100 kPa, x1 = 0.004735	0.582	0.553	0.53	0.506	0.5	0.485	0.463
100 kPa, x1 = 0.006205	0.596	0.564	0.544	0.515	0.505	0.492	0.474
100 kPa, x1 = 0.007786	0.612	0.577	0.552	0.524	0.515	0.499	0.48
100 kPa, x1 = 0.009221	0.629	0.593	0.566	0.532	0.522	0.506	0.489
100 kPa, x1 = 0.01088	0.646	0.609	0.578	0.544	0.529	0.516	0.501
100 kPa, x1 = 0.01243	0.662	0.617	0.585	0.554	0.54	0.523	0.513
101 kPa, x1 = 0.003181	0.57	0.536	0.52	0.498	0.491	0.48	0.454
101 kPa, x1 = 0.00467	0.582	0.553	0.53	0.506	0.5	0.485	0.463
101 kPa, x1 = 0.006096	0.596	0.564	0.544	0.515	0.505	0.492	0.474
101 kPa, x1 = 0.007615	0.612	0.577	0.552	0.524	0.515	0.499	0.48
101 kPa, x1 = 0.008981	0.629	0.593	0.566	0.532	0.522	0.506	0.489
101 kPa, x1 = 0.01055	0.646	0.609	0.578	0.544	0.529	0.516	0.501
101 kPa, x1 = 0.01199	0.662	0.617	0.585	0.554	0.54	0.523	0.513
